Results reported in US7638554B2, “Flavanoids as chemotherapeutic, chemopreventive, and antiangiogenic agents” (SRI International, priority 2002, dated 2009).
Where two headings read alike, the source gives them in different places.

Tests used:
[1] = test system: MDA-MB-231 (ER−) breast cancer cell line; assay: Growth inhibition assay, MTT, MDA-MB-231 breast cancer cells; type: cell-based, human; settings: eight days, average of at least two experiments
Experimental: (§1) Compounds of the invention were tested for their ability to inhibit growth in two breast cancer cell lines, MCF-7 (ER+) and MDA-MB-231 (ER−).
(§2) The growth inhibition assays were conducted using routine methods. Briefly, the cells were seeded in 24-well plates at a density of 2000 cells per well in 200 μL of […] growth medium. To each well was added 10 μL of DMSO containing the dissolved test compound; final DMSO concentration in each well was not more than 0.5%. Each test compound was assayed at concentrations of 0.4, 2, 10, and 50 μM. The plates were incubated for eight days, with the media and test solutions replaced every third day. On Day 8, the viable cells were measured by the MTT assay, as described in Mosmann et al. (1983), “Rapid Colorimetric Assay for Cellular Growth and Survival: Application to Proliferation and Cytotoxicity,” J. Immunol. Method. 65:55-63. The optical density at 575 nm of each test well was measured and compared to that for control wells, and the data used to calculate the percentage of growth inhibition at different concentrations. The IC50 value (the concentration of growth inhibitor that results in 50% growth inhibition of the cells in culture relative to control cells not exposed to any growth inhibitor) was determined by plotting dose-response curves.
(§3) The calculated IC50 values are set forth in Table 1, with the results representing the average of at least two experiments conducted for each compound at each of the four concentrations.

[2] = test system: MCF-7 (ER+) breast cancer cell line; assay: Growth inhibition assay, MTT, MCF-7 breast cancer cells; type: cell-based, human; settings: MTT assay, eight days, average of at least two experiments, read-out: GROWTH INHIBITION (IC50) MCF-7 (ER+)
Experimental: as §1, §2, §3

[3] = test system: chick chorioallantoic membrane (CAM) blood vessels; assay: Chick chorioallantoic membrane (CAM) assay for antiangiogenic activity; type: in vivo; settings: 11.1 μg/CAM, once daily for 12-14 days
Experimental: The CAM assay, which is widely applied to evaluate in vivo antiangiogenic activity, was utilized with SR 13179.
The methods used were those of Folkman (Auerbach et al. (1974) Dev. Biol. 41:391-394), with some modifications. The test compound was dissolved in saline and methylcellulose, and the embryos dosed once daily for 12-14 days. Blood vessel density of each embryo was measured as the quantitative endpoint. The known antiangiogenic compound medroxyprogesterone acetate (MPA) was used as a positive control.

[4] = test system: prostate cancer cell line LNCaP; assay: Growth inhibition, sulforhodamine-based protein determination, LNCaP; type: cell-based; settings: Homo sapiens, Table 5, read-out: Growth Inhibition (IC50), LNCaP cells
Experimental: The novel compound SR 13179 was assayed for its ability to inhibit growth in several cancer cell lines. The cell lines studied included breast cancer cell line MCF-7 (ER+); prostate cancer cell lines LNCaP, PC3, and DU145; lung cancer cell line A427; ovarian cancer cell lines IGROV1, OVCAR-3, OVCAR-4, OVCAR-5, OVCAR-8, and SK-OV-3; and colon cancer cell lines COLO 205, HCC-2998, HCT-116, HCT-15, HT29, KM12, AND SW-620.
The growth assays for the breast cancer cell lines were conducted according to the method of Example 16. For the other cell lines, each assay was conducted with continuous exposure to the test compound at four log concentrations for six days, using a sulforhodamine-based protein determination to measure growth inhibition.
The procedure of Example 20 was used to evaluate the growth inhibitory effect of various compounds of the invention on LNCaP cells.

[5] = Homo sapiens, MDA-MB-231, 192 h

| Compound | IC50 [1, 5] [µM] | IC50 ([2]; Homo sapiens, MCF7, 192 h) [µM] | other results |
| --- | --- | --- | --- |
| 3-(3,4,5-Trimethoxyphenyl)-2,3-dihydro-benzo[F]chromen-1-one [SR 13182] |  |  | IC50 [1]: > 50 µM; IC50 [2]: > 50 µM |
| CC(=O)O[C@]1(C(C)=O)CC[C@H]2[C@@H]3C[C@H](C)C4=CC(=O)CC[C@]4(C)[C@H]3CC[C@@]21C [MPA, medroxyprogesterone acetate, reference compound] |  |  | Blood vessel density score [3]: 4.5 ± 2.3; Percent inhibition relative to control [3]: 58% |
| COc1cc(/C=C/C(=O)c2ccc3ccccc3c2O)cc(OC)c1OC [SR 13176, 1-(1-Hydroxy-naphthalen-2-yl)-3-(3,4,5-trimethoxyphenyl)-propenone] | 39 | > 50 |  |
| O=C(C=Cc1cc(OCc2ccccc2)c(OCc2ccccc2)c(OCc2ccccc2)c1)c1c(O)cc(OCc2ccccc2)cc1OCc1ccccc1 [SR 13178, 1-(2,4-Bis-benzyloxy-6-hydroxyphenyl)-3-(3,4,5-tris-benzyloxy-phenyl)-propenone] |  |  | IC50 [1]: > 100 µM; IC50 [2]: 53 µM |
| O=C1CC(c2cc(OCc3ccccc3)c(OCc3ccccc3)c(OCc3ccccc3)c2)Oc2cc(OCc3ccccc3)cc(OCc3ccccc3)c21 (centres unmarked) [SR 13180, 5,7-BIS-BENZYLOXY-2-(3,4,5-TRIS-BENZYLOXY-PHENYL)-CHROMAN-4-ONE] | > 50 | > 50 |  |
| COc1cc(C2CC(=O)c3c(ccc4ccccc34)O2)cc(OC)c1OC (centres unmarked) [SR 13181, 3′,4′,5′-TRIMETHOXY-B-NAPHTHAFLAVAN-4-ONE] |  |  | IC50 [1]: > 100 µM; IC50 [2]: > 100 µM |
| OC1CC(c2cc(OCc3ccccc3)c(OCc3ccccc3)c(OCc3ccccc3)c2)Oc2cc(OCc3ccccc3)cc(OCc3ccccc3)c21 (centres unmarked) [SR 13183, 5,7-BIS-BENZYLOXY-2-(3,4,5-TRIS-BENZYLOXY-PHENYL)-CHROMAN-4-OL] | 13.6 | > 100 |  |
| O=C1CC(c2cc(OCc3ccccc3)c(OCc3ccccc3)c(OCc3ccccc3)c2)Oc2c1ccc1ccccc21 (centres unmarked) [SR 13186, 2-(3,4,5-TRIS-BENZYLOXY-PHENYL)-2,3-DIHYDRO-BENZO[H]CHROMEN-4-ONE] | 9.84 | 7.32 |  |
| COc1ccc(C2CC(=O)c3c(OC)cc(OC)cc3O2)cc1 (centres unmarked) [SR 13188, 5,7-DIMETHOXY-2-(4-METHOXY-PHENYL)-CHROMAN-4-ONE] | > 50 | > 50 | IC50 [4]: 3.34 µM |
| COc1cc([C@@H]2CC(O)c3cc4c(cc3O2)CCCC4)cc(OC)c1OC (some centres unmarked) [SR 13817, 5-(4-hydroxy-3,4,6,7,8,9-hexahydro-2H-benzo[g]chromen-2-yl)benzene-1,2,3-trimethoxy] |  |  | IC50 [1]: 1.51 µM; IC50 [2]: 0.56 µM |

Continued, in another order:

| IC50 [1, 5] [µM] | IC50 ([2]; Homo sapiens, MCF7, 192 h) [µM] | Compound | other results |
| --- | --- | --- | --- |
|  | 4.65 | COc1cc(C2CC(=O)c3ccc4ccccc4c3O2)cc(OC)c1OC (centres unmarked) [SR 13177, 2-(3,4,5-TRIMETHOXYPHENYL)-2,3-DIHYDRO-BENZO[H]CHROMEN-4-ONE] | IC50 [4]: 2.52 µM |
| 0.562 | 5.08 | O=C(/C=C/c1cc(OCc2ccccc2)c(OCc2ccccc2)c(OCc2ccccc2)c1)c1ccc2ccccc2c1O [SR 13185, 1-(1-HYDROXY-NAPHTHALEN-2-YL)-3-(3,4,5-TRIS-BENZYLOXY-PHENYL)-PROPENONE] |  |
|  | 6.29 | COc1cc(C2CC(O)c3c(ccc4ccccc34)O2)cc(OC)c1OC (centres unmarked) [SR 13187, 3-(3,4,5-TRIMETHOXYPHENYL)-2,3-DIHYDRO-1H-BENZO[F]CHROMEN-1-OL] | IC50 [4]: 17.7 µM |
| > 50 | > 50 | COc1ccc(C2CC(O)c3c(OC)cc(OC)cc3O2)cc1 (centres unmarked) [SR 13189, 5,7-DIMETHOXY-2-(4-METHOXY-PHENYL)-CHROMAN-4-OL] |  |
| > 50 | 19.9 | OC1CC(c2cc(OCc3ccccc3)c(OCc3ccccc3)c(OCc3ccccc3)c2)Oc2c1ccc1ccccc21 (centres unmarked) [SR 13191, 2-(3,4,5-TRIS-BENZYLOXY-PHENYL)-3,4-DIHYDRO-2H-BENZO[H]CHROMEN-4-OL] | IC50 [4]: 6.58 µM |
